Patent publication US12215140B2, “Method of stabilizing protein contained in specimen and solution for stabilizing protein contained in specimen” (EIKEN KAGAKU KABUSHIKI KAISHA, priority 2018, dated 2025)

Tested on: hemoglobin-haptoglobin complex
Test: Stability of hemoglobin (as hemoglobin-haptoglobin complex) in samples preserved at 37° C. in preservation solution containing 1 unit/L haptoglobin, Hb measured by latex agglutination method (Examples 1 to 7)
Set-up: species or system human
Conditions: for Hb concentration / Recovery ratio with respect to Hb concentration after 0 days / Recovery ratio with respect to Hb after 0 days: 37° C.; for recovery ratio of hemoglobin in the sample: Feces 1, Feces 2, Feces 3
Outline: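 Latex agglutination (anti-human hemoglobin rabbit polyclonal latex) measured Hb in samples stored at 37 °C up to 21 days; values expressed as % recovery versus day 0. Preservation solution: HEPES 40 mmol/L pH 6.8, BSA 0.1%, NaN3 0.1%, haptoglobin 1 unit/L, phenylboronic acid 0–100 mmol/L, optional sugars; ~300 µg/L Hb, 0.5% feces or none.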

[1] = Feces 1, sugar 50 mmol/L + phenylboronic acid 15 mmol/L, 0 days
[2] = Feces 1, sugar 50 mmol/L + phenylboronic acid 15 mmol/L, 7 days
[3] = Feces 1, sugar 50 mmol/L + phenylboronic acid 15 mmol/L, 14 days
[4] = Feces 1, sugar 100 mmol/L + phenylboronic acid 15 mmol/L, 0 days
[5] = Feces 1, sugar 100 mmol/L + phenylboronic acid 15 mmol/L, 0 days (Table 7)
[6] = Feces 1, sugar 100 mmol/L + phenylboronic acid 15 mmol/L, 7 days
[7] = Feces 1, sugar 100 mmol/L + phenylboronic acid 15 mmol/L, 7 days (Table 7)
[8] = Feces 1, sugar 100 mmol/L + phenylboronic acid 15 mmol/L, 14 days
[9] = Feces 1, sugar 100 mmol/L + phenylboronic acid 15 mmol/L, 14 days (Table 7)
[10] = Feces 1, sugar 100 mmol/L + phenylboronic acid 50 mmol/L, 0 days
[11] = Feces 1, sugar 100 mmol/L + phenylboronic acid 50 mmol/L, 7 days
[12] = Feces 1, sugar 100 mmol/L + phenylboronic acid 50 mmol/L, 14 days
[13] = Feces 1, sugar 100 mmol/L, no phenylboronic acid, 0 days
[14] = Feces 1, sugar 100 mmol/L, no phenylboronic acid, 7 days
[15] = Feces 1, sugar 100 mmol/L, no phenylboronic acid, 14 days
[16] = Feces 2, sugar 50 mmol/L + phenylboronic acid 15 mmol/L, 0 days
[17] = Feces 2, sugar 50 mmol/L + phenylboronic acid 15 mmol/L, 7 days
[18] = Feces 2, sugar 50 mmol/L + phenylboronic acid 15 mmol/L, 14 days
[19] = Feces 2, sugar 100 mmol/L + phenylboronic acid 15 mmol/L, 0 days
[20] = Feces 2, sugar 100 mmol/L + phenylboronic acid 15 mmol/L, 0 days (Table 7)
[21] = Feces 2, sugar 100 mmol/L + phenylboronic acid 15 mmol/L, 7 days
[22] = Feces 2, sugar 100 mmol/L + phenylboronic acid 15 mmol/L, 7 days (Table 7)
[23] = Feces 2, sugar 100 mmol/L + phenylboronic acid 15 mmol/L, 14 days
[24] = Feces 2, sugar 100 mmol/L + phenylboronic acid 15 mmol/L, 14 days (Table 7)
[25] = Feces 2, sugar 100 mmol/L + phenylboronic acid 50 mmol/L, 0 days
[26] = Feces 2, sugar 100 mmol/L + phenylboronic acid 50 mmol/L, 7 days
[27] = Feces 2, sugar 100 mmol/L + phenylboronic acid 50 mmol/L, 14 days
[28] = Feces 2, sugar 100 mmol/L, no phenylboronic acid, 0 days
[29] = Feces 2, sugar 100 mmol/L, no phenylboronic acid, 7 days
[30] = Feces 2, sugar 100 mmol/L, no phenylboronic acid, 14 days
[31] = Feces 3, sugar 50 mmol/L + phenylboronic acid 15 mmol/L, 0 days
[32] = Feces 3, sugar 50 mmol/L + phenylboronic acid 15 mmol/L, 7 days
[33] = Feces 3, sugar 50 mmol/L + phenylboronic acid 15 mmol/L, 14 days
[34] = Feces 3, sugar 100 mmol/L + phenylboronic acid 15 mmol/L, 0 days
[35] = Feces 3, sugar 100 mmol/L + phenylboronic acid 15 mmol/L, 0 days (Table 7)
[36] = Feces 3, sugar 100 mmol/L + phenylboronic acid 15 mmol/L, 7 days
[37] = Feces 3, sugar 100 mmol/L + phenylboronic acid 15 mmol/L, 7 days (Table 7)
[38] = Feces 3, sugar 100 mmol/L + phenylboronic acid 15 mmol/L, 14 days
[39] = Feces 3, sugar 100 mmol/L + phenylboronic acid 15 mmol/L, 14 days (Table 7)
[40] = Feces 3, sugar 100 mmol/L + phenylboronic acid 50 mmol/L, 0 days
[41] = Feces 3, sugar 100 mmol/L + phenylboronic acid 50 mmol/L, 7 days
[42] = Feces 3, sugar 100 mmol/L + phenylboronic acid 50 mmol/L, 14 days
[43] = Feces 3, sugar 100 mmol/L, no phenylboronic acid, 0 days
[44] = Feces 3, sugar 100 mmol/L, no phenylboronic acid, 7 days
[45] = Feces 3, sugar 100 mmol/L, no phenylboronic acid, 14 days
[46] = No feces, sugar 50 mmol/L + phenylboronic acid 15 mmol/L, 0 days
[47] = No feces, sugar 50 mmol/L + phenylboronic acid 15 mmol/L, 7 days
[48] = No feces, sugar 50 mmol/L + phenylboronic acid 15 mmol/L, 14 days
[49] = No feces, sugar 100 mmol/L + phenylboronic acid 15 mmol/L, 0 days
[50] = No feces, sugar 100 mmol/L + phenylboronic acid 15 mmol/L, 0 days (Table 7)
[51] = No feces, sugar 100 mmol/L + phenylboronic acid 15 mmol/L, 7 days
[52] = No feces, sugar 100 mmol/L + phenylboronic acid 15 mmol/L, 7 days (Table 7)
[53] = No feces, sugar 100 mmol/L + phenylboronic acid 15 mmol/L, 14 days
[54] = No feces, sugar 100 mmol/L + phenylboronic acid 15 mmol/L, 14 days (Table 7)
[55] = No feces, sugar 100 mmol/L + phenylboronic acid 50 mmol/L, 0 days
[56] = No feces, sugar 100 mmol/L + phenylboronic acid 50 mmol/L, 7 days
[57] = No feces, sugar 100 mmol/L + phenylboronic acid 50 mmol/L, 14 days
[58] = No feces, sugar 100 mmol/L, no phenylboronic acid, 0 days
[59] = No feces, sugar 100 mmol/L, no phenylboronic acid, 7 days
[60] = No feces, sugar 100 mmol/L, no phenylboronic acid, 14 days

In the case of `OC[C@@H](O)[C@@H](O)[C@H](O)[C@H](O)CO` [Mannitol, mannitol], the Hb concentration [1] is reported as 288 µg/L, the “Recovery ratio with respect to Hb concentration after 0 days” value [1] is reported as 100% and the Hb concentration [2] is reported as 278 µg/L. The “Recovery ratio with respect to Hb concentration after 0 days” value [2] was 96%, the Hb concentration [3] was 270 µg/L and the “Recovery ratio with respect to Hb concentration after 0 days” value [3] was 94%. For the same compound, the Hb concentration [4] was 281 µg/L, the “Recovery ratio with respect to Hb concentration after 0 days” value [4] was 100% and the Hb concentration [5] was 301 µg/L. The “Recovery ratio with respect to Hb after 0 days” value [5] was 100%, the Hb concentration [6] was 279 µg/L and the “Recovery ratio with respect to Hb concentration after 0 days” value [6] was 99%. For the same compound, the Hb concentration [7] was 288 µg/L, the “Recovery ratio with respect to Hb after 0 days” value [7] was 96% and the Hb concentration [8] was 276 µg/L. The “Recovery ratio with respect to Hb concentration after 0 days” value [8] was 98%, the Hb concentration [9] was 287 µg/L and the “Recovery ratio with respect to Hb after 0 days” value [9] was 95%. For the same compound, the Hb concentration [10] was 270 µg/L, the “Recovery ratio with respect to Hb after 0 days” value [10] was 100% and the Hb concentration [11] was 257 µg/L. The “Recovery ratio with respect to Hb after 0 days” value [11] was 95%, the Hb concentration [12] was 255 µg/L and the “Recovery ratio with respect to Hb after 0 days” value [12] was 95%. For the same compound, the Hb concentration [13] was 276 µg/L, the “Recovery ratio with respect to Hb concentration after 0 days” value [13] was 100% and the Hb concentration [14] was 156 µg/L. The “Recovery ratio with respect to Hb concentration after 0 days” value [14] was 57%, the Hb concentration [15] was 130 µg/L and the “Recovery ratio with respect to Hb concentration after 0 days” value [15] was 47%. For the same compound, the Hb concentration [16] was 296 µg/L, the “Recovery ratio with respect to Hb concentration after 0 days” value [16] was 100% and the Hb concentration [17] was 291 µg/L. The “Recovery ratio with respect to Hb concentration after 0 days” value [17] was 98%, the Hb concentration [18] was 280 µg/L and the “Recovery ratio with respect to Hb concentration after 0 days” value [18] was 95%. For the same compound, the Hb concentration [19] was 290 µg/L, the “Recovery ratio with respect to Hb concentration after 0 days” value [19] was 100% and the Hb concentration [20] was 298 µg/L. For the same compound, the “Recovery ratio with respect to Hb after 0 days” value [20] was 100%, the Hb concentration [21] was 290 µg/L and the “Recovery ratio with respect to Hb concentration after 0 days” value [21] was 100%. For the same compound, the Hb concentration [22] was 284 µg/L, the “Recovery ratio with respect to Hb after 0 days” value [22] was 95% and the Hb concentration [23] was 286 µg/L. The “Recovery ratio with respect to Hb concentration after 0 days” value [23] was 99%, the Hb concentration [24] was 284 µg/L and the “Recovery ratio with respect to Hb after 0 days” value [24] was 95%. The Hb concentration [25] was 268 µg/L, the “Recovery ratio with respect to Hb after 0 days” value [25] was 100% and the Hb concentration [26] was 263 µg/L. The “Recovery ratio with respect to Hb after 0 days” value [26] was 98%, the Hb concentration [27] was 274 µg/L and the “Recovery ratio with respect to Hb after 0 days” value [27] was 102%. The Hb concentration [28] was 284 µg/L, the “Recovery ratio with respect to Hb concentration after 0 days” value [28] was 100% and the Hb concentration [29] was 97 µg/L. For the same compound, the “Recovery ratio with respect to Hb concentration after 0 days” value [29] was 34%, the Hb concentration [30] was 81 µg/L and the “Recovery ratio with respect to Hb concentration after 0 days” value [30] was 28%. For the same compound, the Hb concentration [31] was 293 µg/L, the “Recovery ratio with respect to Hb concentration after 0 days” value [31] was 100% and the Hb concentration [32] was 247 µg/L. For the same compound, the “Recovery ratio with respect to Hb concentration after 0 days” value [32] was 84%, the Hb concentration [33] was 238 µg/L and the “Recovery ratio with respect to Hb concentration after 0 days” value [33] was 81%. The Hb concentration [34] was 286 µg/L, the “Recovery ratio with respect to Hb concentration after 0 days” value [34] was 100% and the Hb concentration [35] was 288 µg/L. The “Recovery ratio with respect to Hb after 0 days” value [35] was 100%, the Hb concentration [36] was 243 µg/L and the “Recovery ratio with respect to Hb concentration after 0 days” value [36] was 85%. The Hb concentration [37] was 231 µg/L, the “Recovery ratio with respect to Hb after 0 days” value [37] was 80% and the Hb concentration [38] was 240 µg/L. For the same compound, the “Recovery ratio with respect to Hb concentration after 0 days” value [38] was 84%, the Hb concentration [39] was 220 µg/L and the “Recovery ratio with respect to Hb after 0 days” value [39] was 76%. The Hb concentration [40] was 254 µg/L, the “Recovery ratio with respect to Hb after 0 days” value [40] was 100% and the Hb concentration [41] was 233 µg/L. The “Recovery ratio with respect to Hb after 0 days” value [41] was 92%, the Hb concentration [42] was 226 µg/L and the “Recovery ratio with respect to Hb after 0 days” value [42] was 89%. For the same compound, the Hb concentration [43] was 282 µg/L, the “Recovery ratio with respect to Hb concentration after 0 days” value [43] was 100% and the Hb concentration [44] was 93 µg/L. The “Recovery ratio with respect to Hb concentration after 0 days” value [44] was 33%, the Hb concentration [45] was 78 µg/L and the “Recovery ratio with respect to Hb concentration after 0 days” value [45] was 28%. The Hb concentration [46] was 270 µg/L, the “Recovery ratio with respect to Hb concentration after 0 days” value [46] was 100% and the Hb concentration [47] was 263 µg/L. The “Recovery ratio with respect to Hb concentration after 0 days” value [47] was 98%, the Hb concentration [48] was 254 µg/L and the “Recovery ratio with respect to Hb concentration after 0 days” value [48] was 94%. The Hb concentration [49] was 269 µg/L, the “Recovery ratio with respect to Hb concentration after 0 days” value [49] was 100% and the Hb concentration [50] was 287 µg/L. The “Recovery ratio with respect to Hb after 0 days” value [50] was 100%, the Hb concentration [51] was 260 µg/L and the “Recovery ratio with respect to Hb concentration after 0 days” value [51] was 97%. The Hb concentration [52] was 272 µg/L, the “Recovery ratio with respect to Hb after 0 days” value [52] was 95% and the Hb concentration [53] was 252 µg/L. The “Recovery ratio with respect to Hb concentration after 0 days” value [53] was 94%, the Hb concentration [54] was 269 µg/L and the “Recovery ratio with respect to Hb after 0 days” value [54] was 94%. The Hb concentration [55] was 254 µg/L, the “Recovery ratio with respect to Hb after 0 days” value [55] was 100% and the Hb concentration [56] was 242 µg/L. The “Recovery ratio with respect to Hb after 0 days” value [56] was 95%, the Hb concentration [57] was 241 µg/L and the “Recovery ratio with respect to Hb after 0 days” value [57] was 95%. The Hb concentration [58] was 261 µg/L, the “Recovery ratio with respect to Hb concentration after 0 days” value [58] was 100% and the Hb concentration [59] was 251 µg/L. For the same compound, the “Recovery ratio with respect to Hb concentration after 0 days” value [59] was 96%, the Hb concentration [60] was 244 µg/L and the “Recovery ratio with respect to Hb concentration after 0 days” value [60] was 93%. For the same compound, the “recovery ratio of hemoglobin in the sample” value (sugar 100 mmol/L further added to other arylboronic acids (3-CPBA, 3-HPBA, 3-APBA) 15 mmol/L) was “further improved” and the “recovery ratio of hemoglobin in the sample” value (sugar 50 or 100 mmol/L further added to phenylboronic acid 15 mmol/L) was “remarkably improved”.
